Like-named read-outs stand apart in the source and are kept apart here.
Key:
[1] = test system: α1-acid glycoprotein (AGP); assay: van 't Hoff thermodynamic analysis on AGP column; type: binding, human; conditions: Δ(ΔH°)/Δ(ΔS°)
Experimental: The temperature effect was investigated at pH 7 and a 95:5 buffer:IPA eluents ratio, between 10 and 30 °C on both columns. […] The determination of thermodynamic parameters can provide valuable insights into the process of enantiodiscrimination, including its mechanistic aspects. The applied classical van ’t Hoff methodology postulates the existence of solely enantioselective interaction sites on the stationary phase. Nonetheless, it should be emphasized that a more realistic approach would encompass both enantioselective and non-enantioselective interactions. The isoenantioselective temperatures (Tiso) were calculated by dividing Δ(ΔH°) by Δ(ΔS°). At this temperature, enthalpy and entropy compensations negate each other, resulting in the coelution of the two enantiomers and no separation. […]
In the equation, R represents the universal gas constant, T represents the absolute temperature in Kelvin, and k represents the retention factor of the enantiomers. ΔH° stands for the standard enthalpy, while ΔS° represents the standard entropy change of transfer of the solute from the mobile phase to the stationary phase. Φ is the phase ratio of the column. […] Similarly, the difference in the change of standard enthalpy, Δ(ΔH°), and standard entropy, Δ(ΔS°), for the two enantiomers was calculated as follows:(6) lnα=−ΔΔH°/RT+ΔΔS°/R

[2] = target: T1, HSA (Homo sapiens, UniProt P02768); conditions: ref [41]; cited from earlier work
T1 construct: purchased Sigma-Aldrich
T1 sequence (P02768 25-609): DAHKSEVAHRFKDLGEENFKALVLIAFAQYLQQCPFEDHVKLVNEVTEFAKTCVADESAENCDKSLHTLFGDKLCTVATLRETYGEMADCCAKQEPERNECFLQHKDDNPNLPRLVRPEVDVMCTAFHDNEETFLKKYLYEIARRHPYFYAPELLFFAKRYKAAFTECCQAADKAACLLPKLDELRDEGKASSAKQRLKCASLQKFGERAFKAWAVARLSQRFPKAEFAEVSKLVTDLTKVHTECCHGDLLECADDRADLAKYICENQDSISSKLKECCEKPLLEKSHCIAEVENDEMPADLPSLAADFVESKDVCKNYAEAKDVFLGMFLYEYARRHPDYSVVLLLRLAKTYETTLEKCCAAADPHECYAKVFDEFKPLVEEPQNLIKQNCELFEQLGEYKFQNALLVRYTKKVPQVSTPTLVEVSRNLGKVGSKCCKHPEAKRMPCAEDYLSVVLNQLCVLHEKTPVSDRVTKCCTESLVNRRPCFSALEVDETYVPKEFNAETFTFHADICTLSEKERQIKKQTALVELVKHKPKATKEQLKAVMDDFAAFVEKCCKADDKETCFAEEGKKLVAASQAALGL

[3] = target: BSA; conditions: racemic, ref [39]; cited from earlier work
[4] = test system: AGP; assay: UV titration (Benesi–Hildebrand) with AGP; type: binding, human; conditions: human, pH 7.4, UV titration, n = 3; 1 μM AGP, pH 7.4 phosphate buffer, 24 °C, 278 nm; read-out: logKAGP ± Stdev (logarithm of stability constant) (converted)
Experimental: The UV-Vis absorption assay is a straightforward and relatively simple method to examine the interactions between small molecules and macromolecules. Changes in the structure of the protein caused by the interacting ligand can lead to alterations in the absorption spectrum. […] Fixed wavelength measurements were conducted at the absorption maxima of AGP and HSA. […] The change in the absorbance and wavelength maximum in the UV spectra during the titration refers to the complex formation between proteins and PPIs. The Benesi–Hildebrand method was used to determine the stability constants based on Equation (7).
The absorption spectra were recorded on a Jasco V-750 spectrophotometer (Jasco, Tokyo, Japan) at 24 °C using 1.0 cm path-length quartz cuvettes. Then, 1 μM HSA and AGP were dissolved in a sodium phosphate buffer solution (pH 7.4; 0.1 M) and their concentration was kept constant. The PPIs were dissolved in DMSO, and further diluted with the AGP or HSA solution. Next, 1000 μL of 1 μM HSA and AGP solutions was titrated with the PPI stock solution in 1 μL steps. The concentration of the PPIs was set to 4.00, 7.98, 11.96, 15.94, 19.90, 23.86, 27.81, and 31.75 μM. The binding constants were determined using the Benesi–Hildebrand equation:(7) A0/A−A0=εPPI/εAPPI−εPPI+εPPI/εAPPI−εPPI×1/K×[C] where A0 is the absorbance of the HSA or AGP at 278 nm, A is the absorbance of the formed complex also at 278 nm, εPPI is the extinction coefficient of the actual PPI, εAPPI is the extinction coefficient of the albumin or AGP and PPI complex, K is the binding coefficient, and [C] is the concentration of the investigated PPI. The plot of A0/A − A0 versus C^−1 has a slope of K^−1. All experiments were performed in triplicate.

[5] = target: T1, HSA; conditions: ref [42]; cited from earlier work

Cc1c(OCC(F)(F)F)ccnc1C[S+]([O-])c1nc2ccccc2[nH]1 (stereo not drawn) [Lansoprazole, lansoprazole]
Tiso isoenantioselective temperature [1]: −16.3 °C

COc1ccc2[nH]c([S+]([O-])Cc3ncc(C)c(OC)c3C)nc2c1 (stereo not drawn) [Omeprazole, omeprazole]
logK [2]: 4.61
logK [3]: 4.58

Cc1c(OCC(F)(F)F)ccnc1C[S@@+]([O-])c1nc2ccccc2[nH]1 [R-lansoprazole, dexlansoprazole]
Kd [4]: 27.5 µM
logK [5]: logK = 3.44 Binding to subdomain IIA

Cc1c(OCC(F)(F)F)ccnc1C[S@+]([O-])c1nc2ccccc2[nH]1 [S-lansoprazole]
Kd [4]: 14.8 µM

— article PMC11477000, “Enantioselective Binding of Proton Pump Inhibitors to Alpha1-Acid Glycoprotein and Human Serum Albumin—A Chromatographic, Spectroscopic, and In Silico Study” (International Journal of Molecular Sciences, 2024)
